Data as given in patent US8287889B2 (Wuhan Liyuanheng Pharmaceutical Technology Ltd., priority 2002, dated 2012).
Read-outs that look alike come from different tables or passages of the source.

Assays:
[1] = system: intestinal cancer cell (HT-29); experiment: In vitro inhibition of intestinal cancer cell, time course; assay type: cell-based
Method: (§1) The relation between administering period and curable effect was intensely observed. That is to say, the inhibiting rate would be recorded according to different administering time of the medicine, such as 2, 3, 4 days administration. It is discovered that administered raw medicine of low concentration, such as 0.1 μg, 0.5 μg, 2 μg/ml, had weak inhibiting effects towards three different cancer cells. As the administering period is extended, the inhibiting effect would gradually be strengthened. […] The extension of administering period could not promptly increase the inhibiting effect. […] In short, for HT-29, A549, and Hep-G2, the maximum inhibiting effect occurred mostly at the fourth administering day, therefore illustrating a better slow-release effect of such medicine.

[2] = system: liver cancer cell (Hep-G2); experiment: In vitro inhibition of liver cancer cell, time course; assay type: cell-based
Method: as §1

lung cancer cell (A549) = experiment: In vitro inhibition of lung cancer cell, time course; assay type: cell-based
Method: as §1

Kunming mice = conditions: 10 mice
Method: The mice were provided by Medical school of Tongji University and with a batch No. 19-052.
Commonly, the lethality of the mice was regarded as positive index. After the death mice of each group were recorded and calculated and a LD50 value was calculated according to the Bliss statistical method.

[3] = administering dosage 2250, intravenous
[4] = administering dosage 3713, intravenous
[5] = administering dosage 6126, intravenous
[6] = administering dosage 10108, intravenous
[7] = administering dosage 16678, intravenous

With C[C@H]1[C@H](C)CC[C@]2(C(=O)O)CC[C@]3(C)C(=CC[C@@H]4[C@@]5(C)CC[C@H](O)C(C)(C)[C@@H]5CC[C@]43C)[C@H]12 [Ursolic Acid for Injection, ursolic acid] the peak inhibiting effect ([1]; HT-29, 10, 50 μg/ml, third day of administration) was 95%, the inhibiting effect ([1]; HT-29, high concentration 10, 50 μg/ml) was “strong” and the inhibiting effect ([1]; HT-29, low concentration 0.1 μg, 0.5 μg, 2 μg/ml) was “weak”. For the same compound, the peak inhibiting effect ([2]; Hep-G2, 10, 50 μg/ml, third day of administration) was 95%, the inhibiting effect ([2]; Hep-G2, high concentration 10, 50 μg/ml) was “strong” and the inhibiting effect ([2]; Hep-G2, low concentration 0.1 μg, 0.5 μg, 2 μg/ml) was “weak”. For the same compound, the peak inhibiting effect (lung cancer cell (A549); A549, 10, 50 μg/ml, third day of administration) was 95%, the inhibiting effect (lung cancer cell (A549); A549, high concentration 10, 50 μg/ml) was “strong” and the inhibiting effect (lung cancer cell (A549); A549, low concentration 0.1 μg, 0.5 μg, 2 μg/ml) was “weak”. The “Death number (r)” value (Kunming mice; [3]) was 0, the “Lethal rate(%)” value (Kunming mice; [3]) was 0% and the “Probability unit (y)” value (Kunming mice; [3]) was 0. The “Death number (r)” value (Kunming mice; [4]) was 1, the “Lethal rate(%)” value (Kunming mice; [4]) was 10% and the “Probability unit (y)” value (Kunming mice; [4]) was 3.72. For the same compound, the “Death number (r)” value (Kunming mice; [5]) was 3, the “Lethal rate(%)” value (Kunming mice; [5]) was 30% and the “Probability unit (y)” value (Kunming mice; [5]) was 4.48. For the same compound, the “Death number (r)” value (Kunming mice; [6]) was 6, the “Lethal rate(%)” value (Kunming mice; [6]) was 60% and the “Probability unit (y)” value (Kunming mice; [6]) was 5.25. The “Death number (r)” value (Kunming mice; [7]) was 10 and the “Lethal rate(%)” value (Kunming mice; [7]) was 100%.
